Results on ten molecules are retold here after patent publication US4845219A, “Nitrogen- and sulfur-containing lipid compounds their production and use” (Takeda Chemical Industries, Ltd., priority 1986, dated 1989).

One series has as its system Sarcoma 180 cells. The series is described as follows: Life-span prolongation of Sarcoma 180-inoculated ICR mice (Test Example 1). The class given is in vivo. Particulars: Sarcoma 180 1×10^5 cells/mouse i.p.; for Life-Span Prolongation Ratio (T/C, %): 0.33 mg/mouse i.p. three times (1 hour, 1 day, 2 days after inoculation), only mice of survival days less than 60 days, control = 100; for 60th day: No. of survivors/No. of tested mice: 0.33 mg/mouse i.p. three times, control 0/5. The protocol: ICR mice (a group consisting of five mice) were inoculated intraperitoneally with 1×10^5 Sarcoma 180 cells per mouse, and then given intraperitoneally 0.33 mg/mouse of the compound prepared in the present invention dissolved in physiological saline, three times in total, 1 hour, 1 day and 2 days after the inoculation. Also, the control compound [III] was given to mice under the same conditions. Shown in Table 1 are the life-span prolongation ratio against the control group not treated with drug (only related to mice of survival days less than 60 days) and the number of survived mice on the 60th day after the initiation of the test.

Series [1] relates to human myelogenic leukaemia cells HL-60. The series is described as follows: Proliferation inhibiting activity against HL-60 (Test Example 3). Particulars: HL-60 cells, read-out: Inhibitory concentration against HL-60 (IC50, μg/ml). Type of series: cell-based. As to the method: Proliferation inhibiting activity (IC50) of the compound of the present invention againsts human myelogenic leukaemia cells HL-60 was measured according to the method of R. Gallo et al [Blood, vol.

The subject of series [2] is platelet aggregation by PAF, washed PRP. The series is described as follows: PAF inhibiting activity in platelet aggregation (Test Example 4). The conditions noted are these: Oryctolagus cuniculus, PAF 3×10^-7 M, rabbit washed PRP, 37° C., relative to maximum aggregation of control PRP by PAF, read-out: Inhibiting Ratio; for inhibition at 30 µM: medicine concentration 3 × 10^-5 M; for inhibition at 3 µM: medicine concentration 3 × 10^-6 M. The class given is cell-based. As to the method:
Using a syringe containing 3.15% citric acid (1 part per 9 parts of blood) as a blood coagulation inhibitor, blood was taken from male rabbit. The blood was then centrifuged at 1000 rpm at room temperature for 10 minutes to obtain a platelet rich plasma (PRP). This PRP was further centrifuged at 1400 rpm for 15 minutes to obtain a platelet pellet. The pellet was suspended in Ca^++ -free Tyrode containing 0.25% gelatin to obtain washed PRP. This PRP (250 μl) was stirred at 37° C. for 2 minutes, to which was then added 25 μl of a 0.2-0.5 mM Ca^++ solution. After this mixture had been stirred for 30 seconds, a medicine to be tested was added thereto. After 2 minutes stirring, 3×10^-7 M of PAF was added to the mixture. Pellet aggregation was measured by means of a platelet aggregometer (manufactured by Rika Denki, Japan). The activity of the test samples was determined in terms of an inhibiting ratio relative to the maximum transmittance (maximum aggregation ratio) of control PRP by PAF.

The test system of the next series is MM46 cells. The series is described as follows: Life-span prolongation of MM46-inoculated C3H/He mice (Test Example 2). The conditions noted are these: MM46 1×10^4 cells/mouse i.p.; for Life-Span Prolongation Ratio (T/C, %): 0.25 mg/mouse i.p. for consecutive 4 days from second day after inoculation, only mice of survival days less than 60 days, control = 100; for No. of survivors/No. of tested mice: 0.25 mg/mouse i.p. for consecutive 4 days, 60th day, control 0/5. Type of series: in vivo. As to the method: C3H/He mice (a group consisting of five mice) were inoculated intraperitoneally with 1×10^4 MM46 cells per mouse, and each mouse was intraperitoneally given 0.25 mg of drug for consecutive 4 days, starting from the second day after the inoculation. Shown in Table 2 are the life-span prolongation ratio ragarding the died mice in the group treated with drug against those in the control group not treated with drug (only related to mice of survival days less than 60 days) and the number of survived mice on the 60th day after the inoculation of MM46.

Another series relates to tumor cells. The conditions noted are these: compound [III], literature; cited from earlier work.
Another series relates to platelets. Particulars: literature; cited from earlier work.
For series [3] the following is noted: literature; cited from earlier work.

Where a name gives a salt, the structure may show the parent alone.

In the case of `CCCCCCCCCCCCCCCCCCOCC(CS(=O)(=O)CCCCCC[N+](C)(C)C)OC.CS(=O)(=O)[O-]` (centres unmarked) [Example 31, 6-[(2-methoxy-3-octadecyloxypropyl)sulfonyl]hexyltrimethylammonium mesylate], in the series on Sarcoma 180 cells, the “Life-Span Prolongation Ratio (T/C, %)” value came to 273% and the “60th day: No. of survivors/No. of tested mice” value is 0/5. In addition, the IC50 in series [1] was 5 µg/mL. Further, in series [2], the inhibition at 30 µM worked out at 100% and the inhibition at 3 µM turned out to be 100%.
`CCCCCCCCCCCCCCCCCCOCC(CCS(=O)(=O)CCC[N+](C)(C)C)OC.CS(=O)(=O)[O-]` (centres unmarked) [Example 36, 3-[(3-methoxy-4-octadecyloxybutyl)sulfonyl]propyltrimethylammonium mesylate]: in the series on Sarcoma 180 cells, the “Life-Span Prolongation Ratio (T/C, %)” value is given as 242% and the “60th day: No. of survivors/No. of tested mice” value is recorded as 1/5. The IC50 in series [1] was 2.5 µg/mL.
As to `CCCCCCCCCCCCCCCCCCOCC(CS(=O)(=O)CCC[N+](C)(C)C)OC.CS(=O)(=O)[O-]` (centres unmarked) [Example 30, 3-[(2-methoxy-3-octadecyloxypropyl)sulfonyl]propyltrimethylammonium mesylate], in the series with Sarcoma 180 cells, the “Life-Span Prolongation Ratio (T/C, %)” value worked out at 350% and the “60th day: No. of survivors/No. of tested mice” value was 0/5. Moreover, in the series on MM46 cells, the “Life-Span Prolongation Ratio (T/C, %)” value is reported as 225% and the “No. of survivors/No. of tested mice” value was 4/5. Also, the IC50 in series [1] stood at 1.25 µg/mL.
Turning to `CCCCCCCCCCCCCCCCCCOCC(CC[S+]([O-])CCC[N+](C)(C)C)OC.CS(=O)(=O)[O-]` (centres unmarked) [Example 37, 3-[(3-methoxy-4-octadecyloxybutyl)sulfinyl]propyltrimethylammonium mesylate], in the series with Sarcoma 180 cells, the “Life-Span Prolongation Ratio (T/C, %)” value was 326% and the “60th day: No. of survivors/No. of tested mice” value is recorded as 0/5. Further, in series [1], the IC50 was 2.5 µg/mL.
As for `CCCCCCCCCCCCCCCCCCOCC(CCS(=O)(=O)CCC[n+]1ccsc1)OC.CS(=O)(=O)[O-]` (centres unmarked) [Example 48, N-[3-((3-Methoxy-4-octadecyloxybutyl)sulfonyl)propyl]thiazolium mesylate], in series [1], the IC50 turned out to be 2.5 µg/mL. In addition, in series [2], the inhibition at 30 µM was determined as 100% and the inhibition at 3 µM is 65%.
Turning to `CCCCCCCCCCCCCCCCCCOCC(CCS(=O)(=O)CCC[n+]1ccccc1)OC.CS(=O)(=O)[O-]` (centres unmarked) [Example 47, N-[3-((3-Methoxy-4-octadecyloxybutyl)sulfonyl)propyl]pyridinium mesylate], the IC50 in series [1] was determined as 1.25 µg/mL. Further, in series [2], the inhibition at 30 µM was determined as 100% and the inhibition at 3 µM was determined as 73%.
On to `CCCCCCCCCCCCCCCCCCNC(=O)OCC(CS(=O)(=O)CCC[n+]1ccccc1)OC` (centres unmarked) [Example 46, N-[3-((2-Methoxy-3-octadecylcarbamoyloxypropyl)sulfonyl)propyl]-pyridinium mesylate], for which, in series [2], the inhibition at 30 µM was determined as 100% and the inhibition at 3 µM is 100%.
With `CCCCCCCCCCCCCCCCCCOCC(COP(=O)([O-])OCC[N+](C)(C)C)OC` (centres unmarked) [Compound [III], reference compound], in the series with Sarcoma 180 cells, the “Life-Span Prolongation Ratio (T/C, %)” value is listed as 162% and the “60th day: No. of survivors/No. of tested mice” value was 0/5. Also, in the series with MM46 cells, the “Life-Span Prolongation Ratio (T/C, %)” value is 155% and the “No. of survivors/No. of tested mice” value is reported as 0/5. The “anti-tumor activity” value with tumor cells is given as “anti-tumor activity”. In the series with platelets, the “platelet activating / aggregating activity” value is “platelet activating property”. Further, the “hypotensive and other side-effect activity” value in series [3] is “hypotensive activity and local stimulating activity”.
For the molecule `CCCCCCCCCCCCCCCCCCOCC(CS(=O)(=O)CCC[n+]1ccccc1)OC` (centres unmarked) [Example 45, N[3-((2-Methoxy-3-octadecyloxypropyl)sulfony)propyl]pyridinium mesylate], the IC50 in series [1] is 1.25 µg/mL. For the same molecule, in series [2], the inhibition at 30 µM amounted to 100% and the inhibition at 3 µM came to 82%.
For the molecule `CCCCCCCCCCCCCCCCCCOCC(CSCCC[N+](C)(C)C)OC.CS(=O)(=O)[O-]` (centres unmarked) [Example 38, 3-[(2-methoxy-3-octadecyloxypropyl)thio]propyltrimethylammonium mesylate], the IC50 in series [1] turned out to be 5 µg/mL.
